Key:
[1] = test system: Canis familiaris; assay: Diuretic effect in mongrel dog assessed as urinary excretion of water at 0.25 mg/kg, po after 6 hrs (reference value: 1.73 +/- 0.46 ml/kg); type: functional, Canis lupus familiaris, Urine
[2] = test system: Canis familiaris; assay: Diuretic effect in mongrel dog assessed as urinary excretion of K+ at 1 mg/kg, iv after 3 hrs (reference value: 0.16 +/- 0.01 mequiv/kg); type: functional, Canis lupus familiaris, Urine
[3] = test system: Canis familiaris; assay: Diuretic effect in mongrel dog assessed as urinary excretion of K+ at 5 mg/kg, iv after 3 hrs (reference value: 0.16 +/- 0.01 mequiv/kg); type: functional, Canis lupus familiaris, Urine
[4] = test system: Canis familiaris; assay: Diuretic effect in mongrel dog assessed as urinary excretion of Na+ at 1 mg/kg, po after 6 hrs (reference value: 0.27 +/- 0.09 mequiv/kg); type: functional, Canis lupus familiaris, Urine
[5] = test system: Canis familiaris; assay: Diuretic effect in mongrel dog assessed as urinary excretion of Cl- at 1 mg/kg, po after 3 hrs (reference value: 0.08 +/- 0.02 mequiv/kg); type: functional, Canis lupus familiaris, Urine
[6] = test system: Canis familiaris; assay: Diuretic effect in mongrel dog assessed as urinary excretion of Na+ at 0.1 mg/kg, iv after 3 hrs (reference value: 0.10 +/- 0.02 mequiv/kg); type: functional, Canis lupus familiaris, Urine
[7] = test system: Canis familiaris; assay: Diuretic effect in mongrel dog assessed as urinary excretion of Cl- at 5 mg/kg, po after 3 hrs (reference value: 0.08 +/- 0.02 mequiv/kg); type: functional, Canis lupus familiaris, Urine
[8] = test system: Canis familiaris; assay: Diuretic effect in mongrel dog assessed as urinary excretion of Na+ at 0.25 mg/kg, po after 6 hrs (reference value: 0.27 +/- 0.09 mequiv/kg); type: functional, Canis lupus familiaris, Urine
[9] = test system: Canis familiaris; assay: Diuretic effect in mongrel dog assessed as urinary excretion of K+ at 0.25 mg/kg, po after 6 hrs (reference value: 0.24 +/- 0.03 mequiv/kg); type: functional, Canis lupus familiaris, Urine
[10] = test system: Canis familiaris; assay: Diuretic effect in mongrel dog assessed as urinary excretion of Cl- at 5 mg/kg, iv after 3 hrs (reference value: 0.08 +/- 0.02 mequiv/kg); type: functional, Canis lupus familiaris, Urine
[11] = test system: Canis familiaris; assay: Diuretic effect in mongrel dog assessed as urinary excretion of water at 5 mg/kg, po after 3 hrs (reference value: 0.93 +/- 0.35 ml/kg); type: functional, Canis lupus familiaris, Urine
[12] = test system: Canis familiaris; assay: Diuretic effect in mongrel dog assessed as urinary excretion of Cl- at 1 mg/kg, po after 6 hrs (reference value: 0.17 +/- 0.09 mequiv/kg); type: functional, Canis lupus familiaris, Urine
[13] = test system: Canis familiaris; assay: Diuretic effect in mongrel dog assessed as urinary excretion of water at 1 mg/kg, po after 6 hrs (reference value: 1.73 +/- 0.46 ml/kg); type: functional, Canis lupus familiaris, Urine
[14] = test system: Canis familiaris; assay: Diuretic effect in mongrel dog assessed as urinary excretion of Na+ at 5 mg/kg, iv after 3 hrs (reference value: 0.10 +/- 0.02 mequiv/kg); type: functional, Canis lupus familiaris, Urine
[15] = test system: Canis familiaris; assay: Diuretic effect in mongrel dog assessed as urinary excretion of water at 5 mg/kg, iv after 3 hrs (reference value: 0.93 +/- 0.35 ml/kg); type: functional, Canis lupus familiaris, Urine
[16] = test system: Canis familiaris; assay: Diuretic effect in mongrel dog assessed as urinary excretion of water at 1 mg/kg, iv after 3 hrs (reference value: 0.93 +/- 0.35 ml/kg); type: functional, Canis lupus familiaris, Urine
[17] = test system: Canis familiaris; assay: Diuretic effect in mongrel dog assessed as urinary excretion of Na+ at 1 mg/kg, po after 3 hrs (reference value: 0.10 +/- 0.02 mequiv/kg); type: functional, Canis lupus familiaris, Urine
[18] = test system: Canis familiaris; assay: Diuretic effect in mongrel dog assessed as urinary excretion of K+ at 1 mg/kg, po after 6 hrs (reference value: 0.24 +/- 0.03 mequiv/kg); type: functional, Canis lupus familiaris, Urine
[19] = test system: Canis familiaris; assay: Diuretic effect in mongrel dog assessed as urinary excretion of Cl- at 0.25 mg/kg, iv after 3 hrs (reference value: 0.08 +/- 0.02 mequiv/kg)
[20] = test system: Canis familiaris; assay: Diuretic effect in mongrel dog assessed as urinary excretion of water at 0.1 mg/kg, iv after 3 hrs (reference value: 0.93 +/- 0.35 ml/kg); type: functional, Canis lupus familiaris, Urine
[21] = test system: Canis familiaris; assay: Diuretic effect in mongrel dog assessed as urinary excretion of Na+ at 1 mg/kg, iv after 3 hrs (reference value: 0.10 +/- 0.02 mequiv/kg); type: functional, Canis lupus familiaris, Urine
[22] = test system: Canis familiaris; assay: Diuretic effect in mongrel dog assessed as urinary excretion of Cl- at 0.1 mg/kg, iv after 3 hrs (reference value: 0.08 +/- 0.02 mequiv/kg); type: functional, Canis lupus familiaris, Urine
[23] = test system: Canis familiaris; assay: Diuretic effect in mongrel dog assessed as urinary excretion of K+ at 5 mg/kg, po after 3 hrs (reference value: 0.16 +/- 0.01 mequiv/kg); type: functional, Canis lupus familiaris, Urine
[24] = test system: Canis familiaris; assay: Diuretic effect in mongrel dog assessed as urinary excretion of K+ at 0.1 mg/kg, iv after 3 hrs (reference value: 0.16 +/- 0.01 mequiv/kg); type: functional, Canis lupus familiaris, Urine
[25] = test system: Canis familiaris; assay: Diuretic effect in mongrel dog assessed as urinary excretion of K+ at 1 mg/kg, po after 3 hrs (reference value: 0.16 +/- 0.01 mequiv/kg); type: functional, Canis lupus familiaris, Urine
[26] = test system: Canis familiaris; assay: Diuretic effect in mongrel dog assessed as urinary excretion of water at 1 mg/kg, po after 3 hrs (reference value: 0.93 +/- 0.35 ml/kg); type: functional, Canis lupus familiaris, Urine
[27] = test system: Canis familiaris; assay: Diuretic effect in mongrel dog assessed as urinary excretion of Na+ at 5 mg/kg, po after 3 hrs (reference value: 0.10 +/- 0.02 mequiv/kg); type: functional, Canis lupus familiaris, Urine
[28] = test system: Canis familiaris; assay: Diuretic effect in mongrel dog assessed as urinary excretion of Cl- at 1 mg/kg, iv after 3 hrs (reference value: 0.08 +/- 0.02 mequiv/kg); type: functional, Canis lupus familiaris, Urine
[29] = test system: Canis familiaris; assay: Diuretic effect in mongrel dog assessed as urinary excretion of K+ at 0.25 mg/kg, iv after 3 hrs (reference value: 0.16 +/- 0.01 mequiv/kg); type: functional, Canis lupus familiaris, Urine
[30] = test system: Canis familiaris; assay: Diuretic effect in mongrel dog assessed as urinary excretion of Na+ at 0.01 mg/kg, po after 3 hrs (reference value: 0.10 +/- 0.02 mequiv/kg); type: functional, Canis lupus familiaris, Urine
[31] = test system: Canis familiaris; assay: Diuretic effect in mongrel dog assessed as urinary excretion of Na+ at 0.25 mg/kg, iv after 3 hrs (reference value: 0.10 +/- 0.02 mequiv/kg); type: functional, Canis lupus familiaris, Urine
[32] = test system: Canis familiaris; assay: Diuretic effect in mongrel dog assessed as urinary excretion of K+ at 0.01 mg/kg, po after 3 hrs (reference value: 0.16 +/- 0.01 mequiv/kg); type: functional, Canis lupus familiaris, Urine
[33] = test system: Canis familiaris; assay: Diuretic effect in mongrel dog assessed as urinary excretion of Cl- at 0.01 mg/kg, po after 3 hrs (reference value: 0.08 +/- 0.02 mequiv/kg); type: functional, Canis lupus familiaris, Urine
[34] = test system: Canis familiaris; assay: Diuretic effect in mongrel dog assessed as urinary excretion of water at 0.25 mg/kg, iv after 3 hrs (reference value: 0.93 +/- 0.35 ml/kg); type: functional, Canis lupus familiaris, Urine
[35] = test system: Canis familiaris; assay: Diuretic effect in mongrel dog assessed as urinary excretion of water at 0.01 mg/kg, iv after 3 hrs (reference value: 0.93 +/- 0.35 ml/kg)
[36] = test system: Canis familiaris; assay: Diuretic effect in mongrel dog assessed as urinary excretion of Cl- at 0.25 mg/kg, iv after 3 hrs (reference value: 0.08 +/- 0.02 mequiv/kg); type: functional, Canis lupus familiaris, Urine
[37] = test system: Canis familiaris; assay: Diuretic effect in mongrel dog assessed as urinary excretion of water at 0.25 mg/kg, po after 3 hrs (reference value: 0.93 +/- 0.35 ml/kg); type: functional, Canis lupus familiaris, Urine
[38] = test system: Canis familiaris; assay: Diuretic effect in mongrel dog assessed as urinary excretion of Na+ at 0.25 mg/kg, po after 3 hrs (reference value: 0.10 +/- 0.02 mequiv/kg); type: functional, Canis lupus familiaris, Urine
[39] = test system: Canis familiaris; assay: Diuretic effect in mongrel dog assessed as urinary excretion of K+ at 0.25 mg/kg, po after 3 hrs (reference value: 0.16 +/- 0.01 mequiv/kg); type: functional, Canis lupus familiaris, Urine
[40] = test system: Canis familiaris; assay: Diuretic effect in mongrel dog assessed as urinary excretion of Cl- at 1 mg/kg, po after 3 hrs (reference value: 0.08 +/- 0.02 mequiv/kg)
[41] = test system: Canis familiaris; assay: Diuretic effect in mongrel dog assessed as urinary excretion of Cl- at 0.25 mg/kg, po after 3 hrs (reference value: 0.08 +/- 0.02 mequiv/kg); type: functional, Canis lupus familiaris, Urine

SMILES: O=CNc1cc(C(=O)O)cc(OCc2ccccc2)c1C(=O)c1ccccc1
- Activity [1]: 18 mL/kg
- Activity [2]: 0.49 milliequivalent/kg
- Activity [3]: 0.63 milliequivalent/kg
- Activity [4]: 2.5 milliequivalent/kg
- Activity [5]: 3.3 milliequivalent/kg
- Activity [6]: 1 milliequivalent/kg
- Activity [7]: 4.5 milliequivalent/kg
- Activity [8]: 2.1 milliequivalent/kg
- Activity [9]: 0.41 milliequivalent/kg
- Activity [10]: 4.5 milliequivalent/kg
- Activity [11]: 33 mL/kg
- Activity [12]: 3.3 milliequivalent/kg
- Activity [13]: 22 mL/kg
- Activity [14]: 2.2 milliequivalent/kg
- Activity [15]: 21 mL/kg
- Activity [16]: 9 mL/kg
- Activity [17]: 2.5 milliequivalent/kg
- Activity [18]: 0.49 milliequivalent/kg
- Activity [19]: 2.6 milliequivalent/kg
- Activity [20]: 9 mL/kg
- Activity [21]: 1.1 milliequivalent/kg
- Activity [22]: 1.3 milliequivalent/kg
- Activity [23]: 1.09 milliequivalent/kg
- Activity [24]: 0.24 milliequivalent/kg
- Activity [25]: 0.51 milliequivalent/kg
- Activity [26]: 21 mL/kg
- Activity [27]: 3.1 milliequivalent/kg
- Activity [28]: 3.1 milliequivalent/kg

SMILES: CCCCNc1cc(C(=O)O)cc(S(N)(=O)=O)c1Oc1ccccc1 [BUMETANIDE]
- Activity [29]: 0.84 milliequivalent/kg
- Activity [30]: 0.92 milliequivalent/kg
- Activity [31]: 4 milliequivalent/kg
- Activity [6]: 2.4 milliequivalent/kg
- Activity [32]: 0.27 milliequivalent/kg
- Activity [33]: 1.4 milliequivalent/kg
- Activity [34]: 39 mL/kg
- Activity [20]: 26 mL/kg
- Activity [35]: 10 mL/kg
- Activity [22]: 3.5 milliequivalent/kg
- Activity [36]: 5.7 milliequivalent/kg
- Activity [24]: 0.44 milliequivalent/kg

SMILES: O=CNc1cc(C(=O)O)cc(SCc2ccccc2)c1C(=O)c1ccccc1
- Activity [2]: 0.27 milliequivalent/kg
- Activity [16]: 26 mL/kg
- Activity [37]: 10 mL/kg
- Activity [38]: 0.5 milliequivalent/kg
- Activity [21]: 2.8 milliequivalent/kg
- Activity [39]: 0.1 milliequivalent/kg
- Activity [40]: 3.5 milliequivalent/kg
- Activity [41]: 0.7 milliequivalent/kg

From ChEMBL document CHEMBL3272011, “Aminobenzoic acid diuretics. 9. 3,4-Disubstituted 5-acylaminobenzoic acids and related compounds” (1977)
